Assay results from ChEMBL document CHEMBL5729474, “Heterocyclic compound as a protein kinase inhibitor” (2022).

Target: Tyrosine-protein kinase JAK1 (Homo sapiens, UniProt P23458)
Test: ADP-Glo Kinase Assay: A control material and a test material were prepared for each concentration, in such a way that they were diluted by means of DMSO. At the same time, ATP (250 uM) and JAK substrate (JAK1, IRS-itide 40 ng/mL) were prepared, in such a way that they were diluted by means of kinase buffer (40 mM Tris-HCl pH 7.5, 20 mM MgCl2, 0.5 mg/mL BSA, 50 uM DTT).A test drug for each concentration, substrate, ATP and JAK enzyme were mixed in an eppendorf tube, and reacted in a 30° C. incubator for 40 minutes.ADP-Glo™ reagent contained in ADP-Glo™ Kinase Enzyme System (Promega, USA, V9571) was added into each eppendorf tube, and reacted in a 30° C. incubator for 40 minutes. A kinase detection reagent contained in ADP-Go™ Kinase Enzyme System was inserted into the eppendorf tube, then an integration time was set to 1 second by using Wallac Victor 2™, then luminescence was measured, and then JAKs phosphorylation inhibition ability of the test material was analyzed. The concentration of the compound, which causes 50% of the JAK enzyme activity inhibition in comparison With the control group, was determined as IC50 (nM) of an inhibitor, wherein the results thereof are shown in a following table 1.

Tyrosine-protein kinase JAK1, sequence (P23458 whole entry): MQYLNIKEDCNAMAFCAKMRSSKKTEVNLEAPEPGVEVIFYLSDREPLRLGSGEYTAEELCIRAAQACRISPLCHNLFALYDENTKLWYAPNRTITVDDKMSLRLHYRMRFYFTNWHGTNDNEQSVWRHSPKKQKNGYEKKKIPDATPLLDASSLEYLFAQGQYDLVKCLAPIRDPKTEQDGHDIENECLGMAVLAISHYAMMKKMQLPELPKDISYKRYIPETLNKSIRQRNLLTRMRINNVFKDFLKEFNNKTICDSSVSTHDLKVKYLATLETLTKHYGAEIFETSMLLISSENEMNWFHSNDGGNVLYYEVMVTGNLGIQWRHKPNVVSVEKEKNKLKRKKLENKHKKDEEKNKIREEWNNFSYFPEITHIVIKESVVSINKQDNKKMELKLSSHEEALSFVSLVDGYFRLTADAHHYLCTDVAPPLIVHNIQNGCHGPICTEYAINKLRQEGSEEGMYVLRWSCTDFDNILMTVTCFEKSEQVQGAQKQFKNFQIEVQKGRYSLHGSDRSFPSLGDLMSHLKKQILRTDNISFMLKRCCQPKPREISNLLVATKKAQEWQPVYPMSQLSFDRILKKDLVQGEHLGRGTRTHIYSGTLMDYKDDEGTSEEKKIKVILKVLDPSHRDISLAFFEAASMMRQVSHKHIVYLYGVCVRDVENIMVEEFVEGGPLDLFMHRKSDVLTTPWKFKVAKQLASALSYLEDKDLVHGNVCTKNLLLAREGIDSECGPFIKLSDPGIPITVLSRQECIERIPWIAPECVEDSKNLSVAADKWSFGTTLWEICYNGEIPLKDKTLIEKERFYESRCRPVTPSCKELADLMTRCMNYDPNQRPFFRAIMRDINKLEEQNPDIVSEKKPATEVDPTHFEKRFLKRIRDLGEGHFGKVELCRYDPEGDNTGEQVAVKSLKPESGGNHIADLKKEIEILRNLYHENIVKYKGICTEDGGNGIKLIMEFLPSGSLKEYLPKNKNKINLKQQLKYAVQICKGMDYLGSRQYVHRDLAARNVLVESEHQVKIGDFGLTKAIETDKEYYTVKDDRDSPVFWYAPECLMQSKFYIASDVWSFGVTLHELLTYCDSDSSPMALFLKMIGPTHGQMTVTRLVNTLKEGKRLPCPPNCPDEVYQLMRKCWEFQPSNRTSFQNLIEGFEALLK

Row | SMILES | IC50 [nM]
1 | CC1CN(C(=O)c2cc(Cl)cc(Cl)c2O)CC=C1c1cc(NC(=O)C2CC2)nc2[nH]ccc12 (centres undefined) | > 200
2 | O=C(Nc1ccc(F)cc1)Nc1ccc(-c2cc(NC(=O)C3CC3)nc3[nH]ccc23)cc1 | > 200
3 | CC1CN(C(=O)c2cc(Cl)ncc2Cl)CC=C1c1cc(NC(=O)C2CC2)nc2[nH]ccc12 (centres undefined) | > 200
4 | O=C(Nc1cc(-c2ccc(CC(=O)N3CCN(S(=O)(=O)C(F)(F)F)CC3)cc2)c2cc[nH]c2n1)C1CC1 | > 200
5 | O=C(Nc1cc(C2=CCN(C(=O)CBr)CC2)c2cc[nH]c2n1)C1CC1 | > 200

Continued, values first:

Row | IC50 [nM] | SMILES
6 | > 200 | CCS(=O)(=O)Nc1ccc(-c2cc(NC(=O)C3CCCCC3)nc3[nH]ccc23)cc1F
7 | > 200 | CCC(=O)Nc1cc(-c2ccc(NS(=O)(=O)CC)c(F)c2)c2cc[nH]c2n1
8 | > 200 | CCS(=O)(=O)Nc1ccc(-c2cc(NC(=O)Cc3ccccc3)nc3[nH]ccc23)cc1F
9 | > 200 | CCS(=O)(=O)Nc1ccc(-c2cc(NC(=O)C3CCCC3)nc3[nH]ccc23)cc1F
